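1) Cells in 96-well plates. 2) Compound, 48 h, 5 concentrations. 3) Linear interpolation between surrounding doses. 4) Unreached endpoint = highest concentration. The concentration for 50% growth inhibition is given as GI50.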 Active and inactive are the calls of the source. No stated cut-off is given here; in the data, active = GI50 up to about 1.1 µM and inactive = higher.
What was measured:
Assay in all cases: NCI anticancer screen, dose series, 48 h
RPMI-8226 = system: RPMI-8226
COLO 205 = system: COLO 205
786-0 = system: 786-0
MOLT-4 = system: MOLT-4
OVCAR-8 = system: OVCAR-8
UO-31 = system: UO-31
HCC 2998 = system: HCC 2998
EKVX = system: EKVX
LOX IMVI = system: LOX IMVI
ACHN = system: ACHN
SR = system: SR
UACC-257 = system: UACC-257
OVCAR-4 = system: OVCAR-4
SK-MEL-2 = system: SK-MEL-2
SK-MEL-5 = system: SK-MEL-5
OVCAR-5 = system: OVCAR-5
CAKI-1 = system: CAKI-1

Measured: GI50

C=CCC1(CC)C(=O)NC(=O)NC1=O [ETALLOBARBITAL]
inactive: RPMI-8226 > 100 µM | COLO 205 > 100 µM | 786-0 > 100 µM | MOLT-4 > 100 µM | OVCAR-8 > 100 µM | UO-31 > 100 µM | HCC 2998 > 100 µM | EKVX > 100 µM | LOX IMVI > 100 µM | ACHN > 100 µM | SR > 100 µM | UACC-257 > 100 µM

CCCCC1(C)C=C/C(=C2/C(=O)O/C(=C\C(=O)O)C2=O)O1 (configuration not stated)
inactive: RPMI-8226 > 100 µM | COLO 205 > 100 µM | 786-0 > 100 µM | MOLT-4 > 100 µM | OVCAR-4 > 100 µM | SK-MEL-2 > 100 µM | SK-MEL-5 > 100 µM | OVCAR-8 > 100 µM | UO-31 > 100 µM | OVCAR-5 > 100 µM | EKVX > 100 µM | LOX IMVI > 100 µM | ACHN > 100 µM | SR > 100 µM | UACC-257 > 100 µM

CCOP(=O)(Cc1ccc(CP(=O)(OCC)OCC)n1C)OCC
inactive: RPMI-8226 > 100 µM | CAKI-1 > 100 µM | COLO 205 > 100 µM | 786-0 > 100 µM | MOLT-4 > 100 µM | OVCAR-4 > 100 µM | SK-MEL-2 > 100 µM | SK-MEL-5 > 100 µM | OVCAR-8 > 100 µM | UO-31 > 100 µM | HCC 2998 > 100 µM | OVCAR-5 > 100 µM | EKVX > 100 µM | LOX IMVI > 100 µM | ACHN > 100 µM | UACC-257 > 100 µM

COc1cc(C2C(C(=O)Nc3ccccc3)=C(C)NC(C)=C2C(=O)Nc2ccccc2)ccc1O
inactive: RPMI-8226 26.4 µM | COLO 205 24.2 µM | 786-0 37.8 µM | MOLT-4 27.4 µM | OVCAR-4 29.1 µM | SK-MEL-2 28.6 µM | OVCAR-8 30.1 µM | UO-31 97.1 µM | HCC 2998 27 µM | OVCAR-5 > 100 µM | EKVX 83.4 µM | LOX IMVI > 10 µM | ACHN 98.9 µM | SR 25.9 µM | UACC-257 61.9 µM

C(=N\Nc1ccccc1)/c1nc2ccccc2nc1/C=N/Nc1ccccc1
inactive: CAKI-1 7.71 µM | 786-0 15.6 µM | MOLT-4 13.2 µM | OVCAR-4 27.8 µM | SK-MEL-2 18.2 µM | SK-MEL-5 19 µM | OVCAR-8 6.75 µM | UO-31 32.2 µM | HCC 2998 8.02 µM | OVCAR-5 27 µM | EKVX 22.1 µM | LOX IMVI 9.25 µM | ACHN 11.8 µM | SR 19.9 µM | UACC-257 23 µM

CN(C)c1ccc(-c2cc(O)c3cc4c(cc3n2)OCO4)cc1
inactive: RPMI-8226 > 100 µM | COLO 205 > 100 µM | 786-0 > 100 µM | MOLT-4 > 100 µM | OVCAR-4 > 100 µM | SK-MEL-2 > 100 µM | SK-MEL-5 > 100 µM | OVCAR-8 > 100 µM | UO-31 > 100 µM | HCC 2998 > 100 µM | EKVX > 100 µM | LOX IMVI > 100 µM | ACHN > 100 µM | SR > 100 µM | UACC-257 > 100 µM

CN(C)c1ccc2c(NCCCCCCNc3ccnc4cc(N(C)C)ccc34)ccnc2c1
inactive: CAKI-1 42.6 µM | 786-0 20.8 µM | MOLT-4 6 µM | OVCAR-4 11.9 µM | SK-MEL-2 20.2 µM | SK-MEL-5 12.2 µM | OVCAR-8 7.29 µM | UO-31 32.3 µM | HCC 2998 15.7 µM | OVCAR-5 25.2 µM | EKVX 36.1 µM | ACHN 16.2 µM | SR 7.73 µM | UACC-257 14.9 µM

Cc1cccc(N2C(=O)C(=O)C(c3nc4ccccc4s3)/C(=N/NC(=S)NN)C2=O)c1C (configuration not stated)
inactive: RPMI-8226 > 100 µM | CAKI-1 > 100 µM | COLO 205 > 100 µM | 786-0 > 100 µM | MOLT-4 90.6 µM | OVCAR-4 > 100 µM | SK-MEL-2 > 100 µM | SK-MEL-5 > 100 µM | OVCAR-8 > 100 µM | UO-31 > 100 µM | HCC 2998 > 100 µM | OVCAR-5 > 100 µM | EKVX > 100 µM | LOX IMVI > 100 µM | ACHN > 100 µM | UACC-257 > 100 µM

COc1cc2ccn3c4cc(OC)c(OC)cc4cc3c2cc1OC
inactive: RPMI-8226 5.6 µM | CAKI-1 29.6 µM | COLO 205 > 100 µM | 786-0 33.5 µM | MOLT-4 > 100 µM | OVCAR-4 > 100 µM | SK-MEL-2 > 100 µM | OVCAR-8 > 100 µM | UO-31 > 100 µM | HCC 2998 > 100 µM | OVCAR-5 > 100 µM | EKVX 98.2 µM | ACHN > 100 µM | SR > 100 µM | UACC-257 > 100 µM

N#Cc1ccccc1NC(=O)C(=O)C(C(=O)c1ccncc1)C1OC(=O)c2ccccc21 (configuration not stated)
inactive: CAKI-1 > 100 µM | COLO 205 > 100 µM | 786-0 > 100 µM | OVCAR-4 > 100 µM | SK-MEL-5 > 100 µM | OVCAR-8 > 100 µM | UO-31 > 100 µM | HCC 2998 > 100 µM | OVCAR-5 > 100 µM | EKVX > 100 µM | LOX IMVI > 100 µM | ACHN > 100 µM | SR > 100 µM | UACC-257 > 100 µM

Source: ChEMBL document CHEMBL1201862, “PubChem BioAssay data set” (2004)
